Assay results as given in US7670990B2, “Fungicidal composition comprising a pyridylethylbenzamide derivative and a compound capable of inhibiting mitosis and cell division” (Bayer Cropscience S.A., priority 2004, dated 2010).

Test system: Erysiphe graminis f. sp. tritici
Assay: Efficacy against Erysiphe graminis f. sp. tritici on wheat plants (preventive spray treatment)
Type: in vivo
Details: Blumeria graminis, single active, wheat sprayed at 1-leaf stage, contaminated after 24 hours, graded 7 to 14 days after contamination vs control plants
Procedure: The active ingredients tested are prepared by potter homogenisation in a mixture of acetone/tween/water. This suspension is then diluted with water to obtain the desired active material concentration.
Wheat plants (Audace variety) in starter cups, sown on 50/50 peat soil-pozzolana substrate and grown at 12° C., are treated at the 1-leaf stage (10 cm tall) by spraying with the aqueous suspension described above.
Plants, used as controls, are treated with an aqueous solution not containing the active material.
After 24 hours, the plants are contaminated by dusting them with Erysiphe graminis f. sp. tritici spores, the dusting being carried out using diseased plants.
Grading is carried out 7 to 14 days after the contamination, in comparison with the control plants.

| SMILES | Emax at 62.5 g/ha [%] | Emax at 125 g/ha [%] |
| --- | --- | --- |
| O=C(NCCc1ncc(C(F)(F)F)cc1Cl)c1ccccc1C(F)(F)F [Compound 1, N-{2-[3-chloro-5-(trifluoromethyl)-2-pyridinyl]ethyl}-2-trifluoromethylbenzamide] | 42 | 63 |
| COC(=O)Nc1nc2ccccc2[nH]1 [Carbendazim, carbendazim] | 0 | 16 |
